According to ChEMBL document CHEMBL1136714 (J Med Chem, 2003):

What was measured:
[1] = molecular target: Norepinephrine transporter (Rattus norvegicus, UniProt Q9WTR4); assay: Binding affinity towards norepinephrine transporter in rat striatum using [3H]nisoxetine as radioligand; assay type: tissue-based
[2] = molecular target: Sodium-dependent serotonin transporter (Rattus norvegicus, UniProt P31652); assay: Binding affinity towards serotonin transporter in rat striatum using [3H]citalopram as radioligand; assay type: tissue-based
[3] = molecular target: T1, Sodium-dependent dopamine transporter (Rattus norvegicus, UniProt P23977); assay: Binding affinity towards dopamine transporter in rat striatum using [3H]WIN-35 428 as radioligand; assay type: tissue-based
[4] = molecular target: T1, Sodium-dependent dopamine transporter; assay: Inhibition of uptake from dopamine transporter in rat striatum using [3H]DA as radioligand; assay type: functional, tissue-based

Norepinephrine transporter, sequence (Q9WTR4 whole entry): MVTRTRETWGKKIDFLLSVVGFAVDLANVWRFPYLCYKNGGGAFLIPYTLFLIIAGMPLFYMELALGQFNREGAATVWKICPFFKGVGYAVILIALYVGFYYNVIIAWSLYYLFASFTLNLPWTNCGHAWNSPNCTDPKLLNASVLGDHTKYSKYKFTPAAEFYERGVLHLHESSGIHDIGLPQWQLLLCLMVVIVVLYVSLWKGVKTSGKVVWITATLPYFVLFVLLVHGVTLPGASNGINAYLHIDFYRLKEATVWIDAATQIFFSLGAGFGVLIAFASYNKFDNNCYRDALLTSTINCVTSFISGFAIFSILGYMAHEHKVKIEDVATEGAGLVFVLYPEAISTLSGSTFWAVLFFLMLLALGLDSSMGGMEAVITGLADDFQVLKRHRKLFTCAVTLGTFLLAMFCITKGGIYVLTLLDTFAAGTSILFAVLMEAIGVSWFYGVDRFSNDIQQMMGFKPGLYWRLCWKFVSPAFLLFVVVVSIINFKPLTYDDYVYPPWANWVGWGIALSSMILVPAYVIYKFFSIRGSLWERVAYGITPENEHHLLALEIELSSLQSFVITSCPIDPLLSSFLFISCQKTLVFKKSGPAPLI
Sodium-dependent serotonin transporter, sequence (P31652 whole entry): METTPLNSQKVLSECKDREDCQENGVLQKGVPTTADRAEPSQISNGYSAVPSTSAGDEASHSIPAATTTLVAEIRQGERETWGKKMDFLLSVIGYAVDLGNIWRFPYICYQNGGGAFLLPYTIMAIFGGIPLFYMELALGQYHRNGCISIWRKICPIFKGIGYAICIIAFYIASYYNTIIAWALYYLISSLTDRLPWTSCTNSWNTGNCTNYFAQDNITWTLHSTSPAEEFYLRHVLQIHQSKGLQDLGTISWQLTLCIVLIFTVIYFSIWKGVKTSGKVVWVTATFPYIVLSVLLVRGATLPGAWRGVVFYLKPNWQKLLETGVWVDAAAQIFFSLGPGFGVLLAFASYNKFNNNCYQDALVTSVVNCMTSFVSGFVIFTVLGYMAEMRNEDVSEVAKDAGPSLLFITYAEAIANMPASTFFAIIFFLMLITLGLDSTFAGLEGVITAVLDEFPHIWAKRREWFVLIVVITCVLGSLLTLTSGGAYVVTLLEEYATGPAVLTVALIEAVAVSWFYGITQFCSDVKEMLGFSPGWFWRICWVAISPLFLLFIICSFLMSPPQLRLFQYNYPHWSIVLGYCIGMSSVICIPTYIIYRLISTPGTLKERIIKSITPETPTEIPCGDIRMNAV
T1 sequence (P23977 whole entry): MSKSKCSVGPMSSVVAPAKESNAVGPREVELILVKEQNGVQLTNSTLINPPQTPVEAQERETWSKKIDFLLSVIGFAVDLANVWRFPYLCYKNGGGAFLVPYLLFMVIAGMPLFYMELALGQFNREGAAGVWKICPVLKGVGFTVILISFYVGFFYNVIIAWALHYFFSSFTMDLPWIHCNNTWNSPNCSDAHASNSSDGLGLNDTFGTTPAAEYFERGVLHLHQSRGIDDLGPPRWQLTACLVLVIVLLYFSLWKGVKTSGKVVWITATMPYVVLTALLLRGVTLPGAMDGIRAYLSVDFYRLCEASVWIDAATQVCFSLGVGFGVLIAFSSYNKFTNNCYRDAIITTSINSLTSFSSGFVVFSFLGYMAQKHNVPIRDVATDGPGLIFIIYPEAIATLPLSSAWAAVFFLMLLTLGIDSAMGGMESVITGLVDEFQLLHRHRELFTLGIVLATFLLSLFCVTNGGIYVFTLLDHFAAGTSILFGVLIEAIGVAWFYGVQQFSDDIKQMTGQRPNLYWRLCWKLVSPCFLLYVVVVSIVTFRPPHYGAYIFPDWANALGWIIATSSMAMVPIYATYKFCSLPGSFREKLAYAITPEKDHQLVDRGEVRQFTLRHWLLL

SMILES | IC50 [1] | IC50 [2] | IC50 [3] | IC50 [4]
CCC(=O)O[C@@H]1CN(Cc2ccc(F)cc2)CC[C@H]1CCOC(c1ccccc1)c1ccccc1 | 35800 nM | 178000 nM | 583 nM | –
Fc1ccc(CN2CC=C(CCOC(c3ccccc3)c3ccccc3)CC2)cc1 | – | 1110 nM | 37.8 nM | –
Fc1ccc(CN2CCC(CCOC(c3ccccc3)c3ccccc3)CC2)cc1 | – | – | – | 2.48 nM
O=C1CN(Cc2ccc(F)cc2)CC[C@H]1CCOC(c1ccccc1)c1ccccc1 | 6300 nM | 7750 nM | 99 nM | –
O[C@@H]1CN(Cc2ccc(F)cc2)CC[C@H]1CCOC(c1ccccc1)c1ccccc1 | 1550 nM | 1830 nM | 56.7 nM | 38 nM
OC1CN(Cc2ccc(F)cc2)CC[C@@H]1CCOC(c1ccccc1)c1ccccc1 (stereo not given in full) | 1880 nM | 3600 nM | 0.46 nM | 4.05 nM
O[C@H]1CN(Cc2ccc(F)cc2)CC[C@H]1CCOC(c1ccccc1)c1ccccc1 (racemic) | 2150 nM | 3310 nM | 11.2 nM | 10.1 nM
O[C@@H]1CN(Cc2ccc(F)cc2)CC[C@H]1CCOC(c1ccccc1)c1ccccc1 (racemic) | 1030 nM | 2360 nM | 4.14 nM | 3.22 nM
